These results are taken from patent US12286429B2, “5-oxo-1,2,3,5,8,8a-hexahydroindolizine-3-carboxamide derivatives useful as a factor XIa inhibitors” (Janssen Pharmaceutica NV, priority 2021, dated 2025).

One assay deals with Factor XIa (Homo sapiens, UniProt P03951). Kind of assay: Factor XIa inhibition assay utilizing a fluorophore-quencher pair peptide substrate (FLINT). The format is biochemical. The following applies: 11-point, 3-fold serial dilution, top 100 nM; 30 min preincubation; 15 μM 5Fam-KLTRAETV-K5Tamra substrate; kinetic reads over 30 min; read-out: FXIa Inhibition IC50. The source says:
Biological Example 1: Factor XIa Inhibition Assay Utilizing a Fluorophore-Quencher Pair Peptide Substrate
A fluorescence intensity (FLINT) based assay was used to monitor inhibition of Factor XIa. The peptide substrate, 5Fam-KLTRAETV-K5Tamra (purchased from New England Peptide) was chosen based on the FXI sequence. Conversion of zymogen FXI to its activated form, FXIa, occurs by proteolytic cleavage by […] at two sites, Arg146 and Arg180. The custom peptide used in this assay was based on the Arg146 cleavage site of FXI. The peptide substrate was designed with a fluorophore-quencher pair, where the fluorescence is quenched until FXIa cleaves the 8-mer peptide after the Arg residue.
The Factor XIa FLINT assay was used with the following 5Fam-KLTRAETV-K5Tamra assay buffer: 50 mM Tris, pH 7.5, 100 mM NaCl, 5 mM CaCl2, 0.1 mg/mL BSA, 0.03% CHAPS. Assay buffer was prepared by mixing all ingredients fresh. 5Fam-KLTRAETV-K5Tamra peptide substrate was first prepared at 10 mM in 100% DMSO, then diluted to 3 mM in 100% DMSO. Assay buffer was then added directly to the 3 mM stock of substrate to prepare the 30 μM 2× working concentration (15 μM final concentration). The 2× Factor XIa stock solution was prepared by diluting 6.562 μM stock in 1× assay buffer for a […].
Test compound(s) were run in an 11-point, 3-fold serial dilution with a final top compound concentration of 100 nM. Final DMSO in assay was 2%. FXIa was preincubated with compound for 30-minutes and then substrate was added to initiate the reaction. The assay was run with kinetic (KIN) reads at 5 min intervals over 30 minutes. […] More specifically, the assay was run as follows: • 100 nL of 0.01 mM test compound was dispensed into black 384-well non-binding Greiner BioOne 784900 plate for 0.1 μM final concentration, • 5 μL of 1× assay buffer was dispensed to column 24 (low control) and 5 μL 2× Factor XIa solution was dispensed to columns 1-23 (column 23 high control); • the plate was centrifuged with a “cover” plate at 500 rpm for 1 min • the plate was pre-incubated for 30 minutes at room temperature with plate covered; • 5 μL of 2×5Fam-KLTRAETV-K5Tamra peptide substrate was dispensed into the entire plate, columns 1-24; • the plate was centrifuged with a “cover” plate at 500 rpm for 1 min; • the plate was read monitoring fluorescence intensity on the BMG PHERAStar at room temperature, using fluorescence module 485 nm/520 nm.
(§1) Percent inhibition (IC50) curves were generated per compound tested, and data was analyzed using a 4-parameter logistic fit using GeneData Screener. The relative fluorescence unit (RFU) values were normalized to percent inhibition using the following equation: % inhibition=((HC−LC)−(compound−LC)/(HC−LC))*100
where LC—low control=mean signal of no Factor XIa or 100% inhibition of Factor XIa; HC—high control=mean signal of Factor XIa+5Fam-KLTRAETV-K5Tamra peptide substrate with DMSO only.
(§2) An 11-point dose response curve for the test compound(s) was generated using GENDATA to determine IC50 value based on the following equation: Y=Bottom+(Top−Bottom)/(1+10^((log IC50−X)*HillSlope))
where Y is the % inhibition in the presence of X inhibitor concentration, Top=high control=mean signal of Factor XIa+5Fam-KLTRAETV-K5Tamra peptide substrate with DMSO only; Bottom=low control—mean signal of no Factor XIa or 100% inhibition of Factor XIa; HillSlope—Hill coefficient; and IC50=concentration of compound with 50% inhibition in relation to top/high control.

In a further assay the target is human plasma kallikrein (Homo sapiens, UniProt P03952). Kind of assay: Kallikrein inhibition assay utilizing a quenched AMC peptide substrate (FLINT). The class given is biochemical. The settings on record: 11-point, 3-fold serial dilution, top 1 μM; 30 min preincubation; 2 nM kallikrein; 50 μM Z-Gly-Pro-Arg-AMC; kinetic reads over 30 min. Here is the method:
Biological Example 2: Kallikrein Inhibition Assay Utilizing a Quenched AMC Peptide Substrate
A fluorescence intensity (FLINT) based assay was used to monitor inhibition of human plasma kallikrein. The peptide substrate, Z-Gly-Pro-Arg-AMC (Purchased from Bachem; Catalog #I-1150) was chosen based on its relatively low KM for kallikrein which enables running the assay at lower substrate concentrations to control background fluorescence. The kinetic parameters for this substrate were determined by fitting titration data to the Michaelis-Menten equation yielding a KM=40 μM, kcat=0.76 s^−1, and kcat/KM=18932 M^−1s^−1.
The Kallikrein FLINT assay was used with the following Z-Gly-Pro-Arg-AMC assay buffer: 50 mM Tris, pH 7.5, 100 mM NaCl, 5 mM CaCl2, 0.1 mg/mL BSA, 0.03% CHAPS. Assay buffer was prepared by mixing all ingredients fresh. 2× Z-Gly-Pro-Arg-AMC peptide substrate was prepared by diluting 10 mM stock into 1× assay buffer for a 100 μM working concentration (50 μM final concentration). The 2× kallikrein stock solution was prepared by diluting 14.76 μM stock in 1× assay buffer for a 4 nM working stock solution (2 nM final concentration).
Test compound(s) were run in an 11-point, 3-fold serial dilution with a final top compound concentration of 1 μM. Final DMSO in assay was 2%. Plasma kallikrein was pre-incubated for 30-minute with compound and then 50 μM substrate was added to initiate the reaction. The assay was run with kinetic (KIN) reads at 5 min intervals over 30 minutes. The time course was linear using 2 nM kallikrein greater than 30 minutes. More specifically, the assay was run as follows: • 100 nL of 0.1 mM test compound was dispensed into black 384-well non-binding Greiner BioOne 784900 plate for 1 μM final concentration; • 5 μL of 1× assay buffer was dispensed to columns 24 (low control) and 5 μL 2× human kallikrein enzyme solution was dispensed to columns 1-23 (column 23 high control); • the plate was centrifuged with a “cover” plate at 500 rpm for 1 min • the plate was pre-incubated for 30 minutes at room temperature with plate covered; • 5 μL of 2× Z-Gly-Pro-Arg-AMC peptide substrate was dispensed into the entire plate, columns 1-24; • the plate was centrifuged with a “cover” plate at 500 rpm for 1 min; • the plate was read monitoring fluorescence intensity on the BMG PHERAStar at room temperature, using fluorescence module 340 nm/440 nm.
as §1
where LC—low control=mean signal of […] 100% inhibition of human kallikrein enzyme; HC—high control=mean signal of […]+Z-Gly-Pro-Arg-AMC peptide substrate with DMSO only.
as §2
where Y is the % inhibition in the presence of X inhibitor concentration, Top=high control=mean signal of human kallikrein enzyme+Z-Gly-Pro-Arg-AMC peptide substrate with DMSO only; Bottom=low control—mean signal of no human kallikrein enzyme or 100% inhibition of human kallikrein enzyme; HillSlope—Hill coefficient; and IC50=concentration of compound with 50% inhibition in relation to top/high control.

Molecules are shown by their SMILES. A value given as a limit tells only on which side of the number the result lay.

Chain of human plasma kallikrein (P03952 391-638 limits assumed): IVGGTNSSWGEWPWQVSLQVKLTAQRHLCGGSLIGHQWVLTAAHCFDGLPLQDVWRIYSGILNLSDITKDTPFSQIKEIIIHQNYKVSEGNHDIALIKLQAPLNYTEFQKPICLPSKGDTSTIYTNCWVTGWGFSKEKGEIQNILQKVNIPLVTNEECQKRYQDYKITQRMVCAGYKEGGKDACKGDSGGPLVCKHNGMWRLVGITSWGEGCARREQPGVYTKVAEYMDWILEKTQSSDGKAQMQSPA
Chain of human plasma kallikrein (P03952 20-390 partner limits assumed): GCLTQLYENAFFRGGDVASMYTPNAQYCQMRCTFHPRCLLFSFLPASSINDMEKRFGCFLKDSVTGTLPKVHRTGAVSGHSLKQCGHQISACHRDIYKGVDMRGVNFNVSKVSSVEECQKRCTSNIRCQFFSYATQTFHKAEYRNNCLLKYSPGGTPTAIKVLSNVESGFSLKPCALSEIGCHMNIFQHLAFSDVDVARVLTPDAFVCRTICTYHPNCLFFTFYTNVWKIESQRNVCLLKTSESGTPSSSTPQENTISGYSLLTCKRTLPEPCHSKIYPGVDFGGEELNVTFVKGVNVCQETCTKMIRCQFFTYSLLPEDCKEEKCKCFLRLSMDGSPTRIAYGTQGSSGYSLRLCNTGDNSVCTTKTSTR
Chain of Factor XIa (P03951 388-625 limits assumed): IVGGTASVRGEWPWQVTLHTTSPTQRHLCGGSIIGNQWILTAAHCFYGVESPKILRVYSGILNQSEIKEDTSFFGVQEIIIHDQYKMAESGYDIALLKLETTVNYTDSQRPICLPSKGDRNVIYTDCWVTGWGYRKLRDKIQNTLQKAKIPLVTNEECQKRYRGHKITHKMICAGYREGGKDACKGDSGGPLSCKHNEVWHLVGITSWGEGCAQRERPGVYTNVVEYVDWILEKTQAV
Chain of Factor XIa (P03951 19-387 partner limits assumed): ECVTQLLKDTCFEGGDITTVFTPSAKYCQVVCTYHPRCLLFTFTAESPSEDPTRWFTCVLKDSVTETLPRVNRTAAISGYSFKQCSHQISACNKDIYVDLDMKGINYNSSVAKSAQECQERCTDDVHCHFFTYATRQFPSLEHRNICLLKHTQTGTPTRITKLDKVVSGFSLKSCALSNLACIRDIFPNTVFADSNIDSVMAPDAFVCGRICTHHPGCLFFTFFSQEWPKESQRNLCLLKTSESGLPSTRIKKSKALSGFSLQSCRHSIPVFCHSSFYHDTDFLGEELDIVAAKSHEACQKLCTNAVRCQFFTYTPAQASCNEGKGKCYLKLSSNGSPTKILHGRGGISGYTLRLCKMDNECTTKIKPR

Consider `O=C(Nc1ccc(-c2nc(=O)o[nH]2)c(F)c1)[C@@H]1CCC2CC(c3c(-n4cnnn4)ccc(Cl)c3F)=CC(=O)N21` (mixture of isomers) [ID No. 42, (3S)-7-[3-Chloro-2-fluoro-6-(tetrazol-1-yl)phenyl]-N-[3-fluoro-4-(5-oxo-2H-1,2,4-oxadiazol-3-yl)phenyl]-5-oxo-2,3,8,8a-tetrahydro-1H-indolizine-3-carboxamide], for which the 50% inhibitory concentration (IC50) at Factor XIa was determined as 0.3 nM; against human plasma kallikrein it was 10 nM. On to `O=C(O)C1CCc2ccc(NC(=O)[C@@H]3CC[C@@H]4CC(c5c(-n6cc(C(F)(F)F)nn6)ccc(Cl)c5F)=CC(=O)N43)cc21` (stereo partly drawn) [compound 104], for which the IC50 on Factor XIa is over 50 nM.

As to `C[C@@H](O)c1cnc2cc(NC(=O)[C@@H]3CCC4CC(c5c(-n6cnnn6)ccc(Cl)c5F)=CC(=O)N43)ccc2n1` (relative stereo) [ID No. 1, (3S*)-7-(3-chloro-2-fluoro-6-(1H-tetrazol-1-yl)phenyl)-N-(2-((R*)-1-hydroxyethyl)quinoxalin-6-yl)-5-oxo-1,2,3,5,8,8a-hexahydroindolizine-3-carboxamide], the values for the IC50 at Factor XIa and against human plasma kallikrein were 5 nM and 9.7 nM, respectively.

Turning to `O=C(Nc1ccc2nn(C(F)F)cc2c1)[C@@H]1CCC2CC(c3c(-n4cnnn4)ccc(Cl)c3F)=CC(=O)N21` (single isomer, unassigned) [ID No. 22, (3S,8aS*)-7-(3-Chloro-2-fluoro-6-(1H-tetrazol-1-yl)phenyl)-N-(2-(difluoromethyl)-2H-indazol-5-yl)-5-oxo-1,2,3,5,8,8a-hexahydroindolizine-3-carboxamide], the IC50 at Factor XIa is 4.2 nM; against human plasma kallikrein, 19.3 nM. The like results for `O=C(Nc1ccc(-c2nnn[nH]2)cc1)[C@@H]1CCC2CC(c3c(-n4cnnn4)ccc(Cl)c3F)=CC(=O)N21` (single isomer, unassigned) [ID No. 66, (3S,8aR*)-7-[3-Chloro-2-fluoro-6-(tetrazol-1-yl)phenyl]-5-oxo-N-[4-(1H-tetrazol-5-yl)phenyl]-2,3,8,8a-tetrahydro-1H-indolizine-3-carboxamide] were, in that order, 0.8 nM and 19.2 nM. In the case of `Cn1cnc(-c2ccc(NC(=O)[C@@H]3CCC4CC(c5c(-n6cnnn6)ccc(Cl)c5F)=CC(=O)N43)cc2)n1` (mixture of isomers) [ID No. 77, (3S)-7-[3-Chloro-2-fluoro-6-(tetrazol-1-yl)phenyl]-N-[4-(1-methyl-1,2,4-triazol-3-yl)phenyl]-5-oxo-2,3,8,8a-tetrahydro-1H-indolizine-3-carboxamide], the IC50 at Factor XIa was 8 nM; against human plasma kallikrein, 63.5 nM.

For the molecule `C[C@@H]1C[C@@H](C(=O)Nc2ccc3nccnc3c2)N2C(=O)C=C(c3c(-n4cnnn4)ccc(Cl)c3F)C[C@H]12` (single isomer, unassigned) [ID No. 81, (1R*,3S,8aR*)-7-[3-Chloro-2-fluoro-6-(tetrazol-1-yl)phenyl]-1-methyl-5-oxo-N-quinoxalin-6-yl-2,3,8,8a-tetrahydro-1H-indolizine-3-carboxamide], the IC50 at Factor XIa was determined as 639 nM. Take `CO[C@H]1C[C@@H](C(=O)Nc2ccc3nn(C)cc3c2)N2C(=O)C=C(c3c(-n4cnnn4)ccc(Cl)c3F)CC12` (mixture of isomers) [compound 110]: the IC50 on Factor XIa is over 100 nM.

For the molecule `Cn1ccnc1-c1ccc(NC(=O)[C@@H]2CCC3CC(c4c(-n5cnnn5)ccc(Cl)c4F)=CC(=O)N32)cc1` (mixture of isomers) [ID No. 78, (3S)-7-[3-Chloro-2-fluoro-6-(tetrazol-1-yl)phenyl]-N-[4-(1-methylimidazol-2-yl)phenyl]-5-oxo-2,3,8,8a-tetrahydro-1H-indolizine-3-carboxamide], the IC50 at Factor XIa came to 58.4 nM. The same measure, in the same setting: next, `CO[C@H]1C[C@@H](C(=O)Nc2ccc3n[nH]cc3c2)N2C(=O)C=C(c3c(-n4cnnn4)ccc(Cl)c3F)CC12` (mixture of isomers) [ID No. 27, (1S,3S)-7-[3-Chloro-2-fluoro-6-(tetrazol-1-yl)phenyl]-N-(2H-indazol-5-yl)-1-methoxy-5-oxo-2,3,8,8a-tetrahydro-1H-indolizine-3-carboxamide]: 136 nM. On to `Cn1oc(=O)nc1-c1ccc(NC(=O)[C@@H]2CCC3CC(c4c(-n5cnnn5)ccc(Cl)c4F)=CC(=O)N32)cc1` (mixture of isomers) [ID No. 67, (3S)-7-[3-Chloro-2-fluoro-6-(tetrazol-1-yl)phenyl]-N-[4-(2-methyl-5-oxo-1,2,4-oxadiazol-3-yl)phenyl]-5-oxo-2,3,8,8a-tetrahydro-1H-indolizine-3-carboxamide], for which the IC50 on Factor XIa amounted to 183 nM. On the same count and under the same terms, next, `COCCNC(=O)c1ccc(NC(=O)[C@@H]2CCC3CC(c4c(-n5cnnn5)ccc(Cl)c4F)=CC(=O)N32)cc1F` (single isomer, unassigned) [ID No. 94, (3S,8aS*)-7-(3-chloro-2-fluoro-6-(1H-tetrazol-1-yl)phenyl)-N-(3-fluoro-4-((2-methoxyethyl)carbamoyl)phenyl)-5-oxo-1,2,3,5,8,8a-hexahydroindolizine-3-carboxamide]: over 50 nM.

Regarding `O=C(Nc1ccc(-c2nc(=O)o[nH]2)cc1)[C@@H]1CCC2CC(c3c(OCC(F)(F)F)ccc(Cl)c3F)=CC(=O)N21` (mixture of isomers) [ID No. 40, (3S)-7-(3-Chloro-2-fluoro-6-(2,2,2-trifluoroethoxy)phenyl)-5-oxo-N-(4-(5-oxo-2,5-dihydro-1,2,4-oxadiazol-3-yl)phenyl)-1,2,3,5,8,8a-hexahydroindolizine-3-carboxamide], the half-maximal inhibitory concentration (IC50) on Factor XIa came to 30.8 nM.

The IC50 is the concentration that inhibits the measured activity by half.
